From patent US10040781B2, “Tank-binding kinase inhibitor compounds” (Gilead Sciences, Inc., priority 2014, dated 2018)

Columns and labels:
[1] = target: IKKε (Homo sapiens (Human), UniProt Q14164); assay: IKKε TR-FRET enzymatic assay; format: biochemical; conditions: read-out: IKKe IC50
[2] = target: hJAK2 (Homo sapiens (Human), UniProt O60674); assay: hJAK2 LANCE TR-FRET enzymatic assay; format: biochemical; conditions: read-out: JAK2 IC50
[3] = target: TBK1 (Homo sapiens (Human), UniProt Q9UHD2); assay: TBK1 TR-FRET enzymatic assay;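 also: phosphorylation of a biotinylated Ser/Thr peptide by purified full-length recombinant TBK1, read by TR-FRET after 240 min at 25 °C, IC50 is the geometric mean of at least four runs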
Sequence of TBK1 (Q9UHD2 whole entry): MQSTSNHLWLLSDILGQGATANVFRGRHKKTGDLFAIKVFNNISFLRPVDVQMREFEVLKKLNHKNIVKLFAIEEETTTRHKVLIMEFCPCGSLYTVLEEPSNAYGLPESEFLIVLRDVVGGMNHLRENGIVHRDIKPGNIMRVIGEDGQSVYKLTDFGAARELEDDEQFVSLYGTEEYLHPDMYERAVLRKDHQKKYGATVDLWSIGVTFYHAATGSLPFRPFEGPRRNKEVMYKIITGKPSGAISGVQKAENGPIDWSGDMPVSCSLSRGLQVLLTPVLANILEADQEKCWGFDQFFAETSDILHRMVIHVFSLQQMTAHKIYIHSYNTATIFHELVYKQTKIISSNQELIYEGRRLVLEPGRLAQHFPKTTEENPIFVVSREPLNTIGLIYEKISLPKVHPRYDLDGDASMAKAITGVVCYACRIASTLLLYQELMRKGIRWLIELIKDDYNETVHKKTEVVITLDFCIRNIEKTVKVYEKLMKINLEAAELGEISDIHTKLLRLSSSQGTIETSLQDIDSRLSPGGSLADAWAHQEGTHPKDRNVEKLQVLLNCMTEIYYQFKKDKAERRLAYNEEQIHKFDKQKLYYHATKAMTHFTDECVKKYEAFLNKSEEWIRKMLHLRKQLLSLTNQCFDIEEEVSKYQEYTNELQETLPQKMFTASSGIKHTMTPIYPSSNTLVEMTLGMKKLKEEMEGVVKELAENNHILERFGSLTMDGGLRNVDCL

Sequence of IKKε (Q14164 whole entry): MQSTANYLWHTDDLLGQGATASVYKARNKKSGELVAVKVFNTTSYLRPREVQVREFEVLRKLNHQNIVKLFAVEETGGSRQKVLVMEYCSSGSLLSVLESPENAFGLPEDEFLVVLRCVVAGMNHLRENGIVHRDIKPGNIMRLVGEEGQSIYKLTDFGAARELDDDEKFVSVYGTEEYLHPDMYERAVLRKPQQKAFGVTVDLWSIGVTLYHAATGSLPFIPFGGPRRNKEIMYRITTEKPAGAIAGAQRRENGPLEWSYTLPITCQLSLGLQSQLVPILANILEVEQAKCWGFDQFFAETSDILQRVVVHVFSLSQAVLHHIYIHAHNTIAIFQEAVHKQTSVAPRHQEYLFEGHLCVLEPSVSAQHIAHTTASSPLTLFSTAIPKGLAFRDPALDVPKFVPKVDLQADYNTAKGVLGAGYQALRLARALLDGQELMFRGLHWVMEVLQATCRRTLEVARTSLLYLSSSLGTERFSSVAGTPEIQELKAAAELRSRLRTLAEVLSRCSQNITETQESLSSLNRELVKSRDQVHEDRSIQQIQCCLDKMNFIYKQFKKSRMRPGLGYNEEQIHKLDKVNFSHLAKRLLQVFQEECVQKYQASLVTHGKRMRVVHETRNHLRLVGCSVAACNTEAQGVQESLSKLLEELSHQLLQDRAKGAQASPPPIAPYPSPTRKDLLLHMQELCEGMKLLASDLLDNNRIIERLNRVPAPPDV
Sequence of hJAK2 (O60674 whole entry): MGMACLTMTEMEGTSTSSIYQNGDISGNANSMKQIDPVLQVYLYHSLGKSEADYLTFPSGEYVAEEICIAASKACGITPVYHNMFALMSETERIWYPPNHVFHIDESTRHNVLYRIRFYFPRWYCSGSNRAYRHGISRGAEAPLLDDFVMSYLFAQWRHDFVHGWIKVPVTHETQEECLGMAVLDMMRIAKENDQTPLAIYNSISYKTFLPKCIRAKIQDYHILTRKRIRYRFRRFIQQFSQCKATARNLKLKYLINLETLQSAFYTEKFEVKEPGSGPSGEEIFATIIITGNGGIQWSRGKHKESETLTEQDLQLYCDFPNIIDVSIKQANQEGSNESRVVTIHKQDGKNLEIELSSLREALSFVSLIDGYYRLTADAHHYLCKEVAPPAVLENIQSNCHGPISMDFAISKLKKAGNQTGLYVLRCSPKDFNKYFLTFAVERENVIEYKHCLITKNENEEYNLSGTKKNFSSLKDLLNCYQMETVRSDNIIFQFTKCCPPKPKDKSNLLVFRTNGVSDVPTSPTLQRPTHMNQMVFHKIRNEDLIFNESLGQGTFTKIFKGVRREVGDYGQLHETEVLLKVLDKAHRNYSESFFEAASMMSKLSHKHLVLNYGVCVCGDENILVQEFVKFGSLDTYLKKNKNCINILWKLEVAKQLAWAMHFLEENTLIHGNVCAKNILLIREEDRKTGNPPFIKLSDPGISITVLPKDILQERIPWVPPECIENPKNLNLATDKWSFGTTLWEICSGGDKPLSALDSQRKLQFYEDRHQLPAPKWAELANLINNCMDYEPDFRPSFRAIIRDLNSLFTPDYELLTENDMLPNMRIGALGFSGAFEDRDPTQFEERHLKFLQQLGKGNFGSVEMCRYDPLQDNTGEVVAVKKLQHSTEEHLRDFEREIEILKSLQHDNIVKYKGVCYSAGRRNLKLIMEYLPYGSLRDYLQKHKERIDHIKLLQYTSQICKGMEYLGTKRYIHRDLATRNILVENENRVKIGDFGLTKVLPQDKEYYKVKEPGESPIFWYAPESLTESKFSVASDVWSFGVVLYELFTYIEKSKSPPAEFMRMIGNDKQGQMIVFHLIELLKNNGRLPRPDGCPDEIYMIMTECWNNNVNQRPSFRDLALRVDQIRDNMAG

**Q.** How did the IC50 [1] turn out when `N#Cc1cc(-c2ncnc(Nc3ccc(N4CCN(C5COC5)CC4)cc3)n2)ccc1O[C@H]1CCN(C(=O)Cc2cnn[nH]2)C[C@H]1F` [Example 319, 2-(((3R,4S)-1-(2-(1H-1,2,3-triazol-5-yl)acetyl)-3-fluoropiperidin-4-yl)oxy)-5-(4-((4-(4-(oxetan-3-yl)piperazin-1-yl)phenyl)amino)-1,3,5-triazin-2-yl)benzonitrile] was run?
**A.** 7 nM

**Q.** What about the IC50 [2] of the same compound?
**A.** 102 nM

**Q.** What about the IC50 [3] of the same compound?
**A.** 4 nM

**Q.** For `N#Cc1cc(-c2ncnc(Nc3ccc(N4CCN(C5COC5)CC4)cc3)n2)ccc1O[C@H]1CCN(C(=O)Cc2ccn[nH]2)C[C@H]1F` [Example 320, 2-(((3R,4S)-1-(2-(1H-pyrazol-5-yl)acetyl)-3-fluoropiperidin-4-yl)oxy)-5-(4-((4-(4-(oxetan-3-yl)piperazin-1-yl)phenyl)amino)-1,3,5-triazin-2-yl)benzonitrile], which IC50 [1] is on record?
**A.** 40 nM

**Q.** And the IC50 [2]?
**A.** 127 nM

**Q.** And the IC50 [3]?
**A.** 14 nM

**Q.** Which IC50 [1] does the source give for `Cc1cc(C(=O)N2CC[C@H](Oc3ccc(-c4ncnc(Nc5ccc(N6CCN(C7COC7)CC6)cc5)n4)cc3C#N)[C@H](F)C2)[nH]n1` [Example 321, 2-(((3R,4S)-3-fluoro-1-(3-methyl-1H-pyrazole-5-carbonyl)piperidin-4-yl)oxy)-5-(4-((4-(4-(oxetan-3-yl)piperazin-1-yl)phenyl)amino)-1,3,5-triazin-2-yl)benzonitrile] here?
**A.** 2 nM

**Q.** What about the IC50 [2] of the same compound?
**A.** 164 nM

**Q.** And the IC50 [3]?
**A.** 3 nM

**Q.** For `N#Cc1cc(-c2ncnc(Nc3ccc(N4CCN(C5COC5)CC4)cc3)n2)ccc1O[C@H]1CCN(C(=O)c2[nH]ncc2Cl)C[C@H]1F` [Example 322, 2-(((3R,4S)-1-(4-chloro-1H-pyrazole-5-carbonyl)-3-fluoropiperidin-4-yl)oxy)-5-(4-((4-(4-(oxetan-3-yl)piperazin-1-yl)phenyl)amino)-1,3,5-triazin-2-yl)benzonitrile], which IC50 [1] is on record?
**A.** 8 nM

**Q.** What about the IC50 [2] of the same compound?
**A.** 192 nM

**Q.** And the IC50 [3]?
**A.** 5 nM

**Q.** How did the IC50 [1] turn out when `N#Cc1cc(-c2ncnc(Nc3ccc(N4CCN(C5COC5)CC4)cc3)n2)ccc1O[C@H]1CCN(C(=O)c2[nH]nc(N)c2Cl)C[C@H]1F` [Example 323, 2-(((3R,4S)-1-(3-amino-4-chloro-1H-pyrazole-5-carbonyl)-3-fluoropiperidin-4-yl)oxy)-5-(4-((4-(4-(oxetan-3-yl)piperazin-1-yl)phenyl)amino)-1,3,5-triazin-2-yl)benzonitrile] was run?
**A.** 3 nM

**Q.** What about the IC50 [2] of the same compound?
**A.** 75 nM

**Q.** And the IC50 [3]?
**A.** 3 nM

**Q.** How did the IC50 [1] turn out when `COc1cc(Nc2ncnc(-c3ccc(O[C@H]4CCN(C(=O)[C@H](C)O)C[C@H]4F)c(C#N)c3)n2)ccc1N1CCC(N2CCOCC2)CC1` [Example 326, 2-(((3R,4S)-3-fluoro-1-((S)-2-hydroxypropanoyl)piperidin-4-yl)oxy)-5-(4-((3-methoxy-4-(4-morpholinopiperidin-1-yl)phenyl)amino)-1,3,5-triazin-2-yl)benzonitrile] was run?
**A.** 1 nM

**Q.** And the IC50 [2]?
**A.** 72 nM

**Q.** What about the IC50 [3] of the same compound?
**A.** 2 nM

**Q.** Which IC50 [1] does the source give for `COc1cc(Nc2ncnc(-c3ccc(O[C@H]4CCN(C(=O)CC#N)C[C@H]4F)c(C#N)c3)n2)ccc1N1CCC(N2CCOCC2)CC1` [Example 327, 2-(((3R,4S)-1-(2-cyanoacetyl)-3-fluoropiperidin-4-yl)oxy)-5-(4-((3-methoxy-4-(4-morpholinopiperidin-1-yl)phenyl)amino)-1,3,5-triazin-2-yl)benzonitrile] here?
**A.** 2 nM

**Q.** What about the IC50 [2] of the same compound?
**A.** 62 nM

**Q.** What about the IC50 [3] of the same compound?
**A.** 4 nM

**Q.** Which IC50 [1] does the source give for `C[C@H](O)C(=O)N1CC[C@H](Oc2c(F)cc(-c3ncnc(Nc4ccc(N5CCN(C6COC6)CC5)cc4)n3)cc2C#N)[C@H](F)C1` [Example 328, 3-fluoro-2-(((3R,4S)-3-fluoro-1-((S)-2-hydroxypropanoyl)piperidin-4-yl)oxy)-5-(4-((4-(4-(oxetan-3-yl)piperazin-1-yl)phenyl)amino)-1,3,5-triazin-2-yl)benzonitrile] here?
**A.** 4 nM

**Q.** What about the IC50 [2] of the same compound?
**A.** ≥ 1000 nM

**Q.** What about the IC50 [3] of the same compound?
**A.** 4 nM

**Q.** `N#Cc1cc(-c2ncnc(Nc3ccc(N4CCN(C5COC5)CC4)cc3)n2)cc(F)c1O[C@H]1CCN(C(=O)CO)C[C@H]1F` [Example 329, 3-fluoro-2-(((3R,4S)-3-fluoro-1-(2-hydroxyacetyl)piperidin-4-yl)oxy)-5-(4-((4-(4-(oxetan-3-yl)piperazin-1-yl)phenyl)amino)-1,3,5-triazin-2-yl)benzonitrile] was tested. Which IC50 [1] did it give?
**A.** 3 nM

**Q.** And the IC50 [2]?
**A.** 648 nM

**Q.** What about the IC50 [3] of the same compound?
**A.** 4 nM

**Q.** What does the source list for `N#CCC(=O)N1CC[C@H](Oc2c(F)cc(-c3ncnc(Nc4ccc(N5CCN(C6COC6)CC5)cc4)n3)cc2C#N)[C@H](F)C1` [Example 330, 2-(((3R,4S)-1-(2-cyanoacetyl)-3-fluoropiperidin-4-yl)oxy)-3-fluoro-5-(4-((4-(4-(oxetan-3-yl)piperazin-1-yl)phenyl)amino)-1,3,5-triazin-2-yl)benzonitrile]?
**A.** IC50 [1]: 6 nM; IC50 [2]: 941 nM; IC50 [3]: 4 nM

**Q.** For `N#Cc1cc(-c2ncnc(Nc3ccc(N4CCN(C5COC5)CC4)cc3)n2)cc(F)c1O[C@H]1CCN(C(=O)CCO)C[C@H]1F` [Example 331, 3-fluoro-2-(((3R,4S)-3-fluoro-1-(3-hydroxypropanoyl)piperidin-4-yl)oxy)-5-(4-((4-(4-(oxetan-3-yl)piperazin-1-yl)phenyl)amino)-1,3,5-triazin-2-yl)benzonitrile], which IC50 [1] is on record?
**A.** 14 nM

**Q.** And the IC50 [2]?
**A.** 943 nM

**Q.** What about the IC50 [3] of the same compound?
**A.** 7 nM

**Q.** With `N#Cc1cc(-c2ncnc(Nc3ccc(OCCN4CCCC4)cc3)n2)ccc1OC1CCOCC1` [Example 332, 5-(4-((4-(2-(pyrrolidin-1-yl)ethoxy)phenyl)amino)-1,3,5-triazin-2-yl)-2-((tetrahydro-2H-pyran-4-yl)oxy)benzonitrile] as the compound, how does the IC50 [1] read?
**A.** 5 nM

**Q.** What about the IC50 [2] of the same compound?
**A.** 943 nM

**Q.** What about the IC50 [3] of the same compound?
**A.** 10 nM

**Q.** `N#Cc1cc(-c2ncnc(Nc3ccc(N4CCN(C5COC5)CC4)cc3)n2)ccc1O[C@H]1CCN(C(=O)[C@@H]2COC(=O)N2)C[C@H]1F` [Example 333, 2-(((3R,4S)-3-fluoro-1-((S)-2-oxooxazolidine-4-carbonyl)piperidin-4-yl)oxy)-5-(4-((4-(4-(oxetan-3-yl)piperazin-1-yl)phenyl)amino)-1,3,5-triazin-2-yl)benzonitrile] was tested. Which IC50 [1] did it give?
**A.** 3 nM

**Q.** And the IC50 [2]?
**A.** 233 nM

**Q.** And the IC50 [3]?
**A.** 2 nM

**Q.** With `N#Cc1cc(-c2ncnc(Nc3ccc(N4CCN(C5COC5)CC4)cc3)n2)ccc1O[C@H]1CCN(C(=O)c2nc(N)n[nH]2)C[C@H]1F` [Example 334, 2-(((3R,4S)-1-(3-amino-1H-1,2,4-triazole-5-carbonyl)-3-fluoropiperidin-4-yl)oxy)-5-(4-((4-(4-(oxetan-3-yl)piperazin-1-yl)phenyl)amino)-1,3,5-triazin-2-yl)benzonitrile] as the compound, how does the IC50 [1] read?
**A.** 2 nM

**Q.** What about the IC50 [2] of the same compound?
**A.** 80 nM

**Q.** And the IC50 [3]?
**A.** 16 nM

**Q.** `CC(=O)N[C@@H](C)C(=O)N1CC[C@H](Oc2ccc(-c3ncnc(Nc4ccc(N5CCN(C6COC6)CC5)cc4)n3)cc2C#N)[C@H](F)C1` [Example 335, N—((S)-1-((3R,4S)-4-(2-cyano-4-(4-((4-(4-(oxetan-3-yl)piperazin-1-yl)phenyl)amino)-1,3,5-triazin-2-yl)phenoxy)-3-fluoropiperidin-1-yl)-1-oxopropan-2-yl)acetamide] was tested. Which IC50 [1] did it give?
**A.** 834 nM

**Q.** What about the IC50 [2] of the same compound?
**A.** 478 nM

**Q.** What about the IC50 [3] of the same compound?
**A.** 508 nM

**Q.** With `N#Cc1cc(-c2ncnc(Nc3ccc(N4CCN(C5COC5)CC4)cc3)n2)ccc1O[C@H]1CCN(C(=O)c2ccncn2)C[C@H]1F` [Example 337, 2-(((3R,4S)-3-fluoro-1-(pyrimidine-4-carbonyl)piperidin-4-yl)oxy)-5-(4-((4-(4-(oxetan-3-yl)piperazin-1-yl)phenyl)amino)-1,3,5-triazin-2-yl)benzonitrile] as the compound, how does the IC50 [1] read?
**A.** 7 nM

**Q.** And the IC50 [2]?
**A.** 572 nM

**Q.** And the IC50 [3]?
**A.** 4 nM

**Q.** How did the IC50 [1] turn out when `N#Cc1cc(-c2ncnc(Nc3ccc(N4CCN(C5COC5)CC4)cc3)n2)ccc1O[C@H]1CCN(C(=O)c2ccnnc2)C[C@H]1F` [Example 338, 2-(((3R,4S)-3-fluoro-1-(pyridazine-4-carbonyl)piperidin-4-yl)oxy)-5-(4-((4-(4-(oxetan-3-yl)piperazin-1-yl)phenyl)amino)-1,3,5-triazin-2-yl)benzonitrile] was run?
**A.** 18 nM

**Q.** What about the IC50 [2] of the same compound?
**A.** 131 nM

**Q.** And the IC50 [3]?
**A.** 9 nM

**Q.** For `N#Cc1cc(-c2ncnc(Nc3ccc(N4CCN(C5COC5)CC4)cc3)n2)ccc1O[C@H]1CCN(C(=O)c2nccnc2N)C[C@H]1F` [Example 339, 2-(((3R,4S)-1-(3-aminopyrazine-2-carbonyl)-3-fluoropiperidin-4-yl)oxy)-5-(4-((4-(4-(oxetan-3-yl)piperazin-1-yl)phenyl)amino)-1,3,5-triazin-2-yl)benzonitrile], which IC50 [1] is on record?
**A.** 58 nM

**Q.** What about the IC50 [2] of the same compound?
**A.** 54 nM

**Q.** What about the IC50 [3] of the same compound?
**A.** 14 nM

**Q.** Which results are given for `N#Cc1cc(-c2ncnc(Nc3ccc(N4CCN(C5COC5)CC4)cc3)n2)ccc1O[C@H]1CCN(C(=O)c2cncc(N)n2)C[C@H]1F` [Example 340, 2-(((3R,4S)-1-(6-aminopyrazine-2-carbonyl)-3-fluoropiperidin-4-yl)oxy)-5-(4-((4-(4-(oxetan-3-yl)piperazin-1-yl)phenyl)amino)-1,3,5-triazin-2-yl)benzonitrile]?
**A.** IC50 [1]: 9 nM; IC50 [2]: 122 nM; IC50 [3]: 4 nM

**Q.** Which results are given for `C[C@H](O)C(=O)N1CC[C@H](Oc2ccc(-c3ncnc(Nc4ccc(N5CC(C)(O)C5)cc4)n3)cc2C#N)[C@H](F)C1` [Example 342, 2-(((3R,4S)-3-fluoro-1-((S)-2-hydroxypropanoyl)piperidin-4-yl)oxy)-5-(4-((4-(3-hydroxy-3-methylazetidin-1-yl)phenyl)amino)-1,3,5-triazin-2-yl)benzonitrile]?
**A.** IC50 [1]: 1 nM; IC50 [2]: 496 nM; IC50 [3]: 2 nM

**Q.** With `Cn1ncc2ccc(Nc3ncnc(-c4ccc(O[C@H]5CCN(C(=O)CO)C[C@H]5F)c(C#N)c4)n3)cc21` [Example 343, 2-(((3R,4S)-3-fluoro-1-(2-hydroxyacetyl)piperidin-4-yl)oxy)-5-(4-((1-methyl-1H-indazol-6-yl)amino)-1,3,5-triazin-2-yl)benzonitrile] as the compound, how does the IC50 [1] read?
**A.** 2 nM

**Q.** What about the IC50 [2] of the same compound?
**A.** 258 nM

**Q.** And the IC50 [3]?
**A.** 4 nM

**Q.** What does the source list for `C[C@H](O)C(=O)N1CC[C@H](Oc2ccc(-c3ncnc(Nc4ccc5cnn(C)c5c4)n3)cc2C#N)[C@H](F)C1` [Example 344, 2-(((3R,4S)-3-fluoro-1-((S)-2-hydroxypropanoyl)piperidin-4-yl)oxy)-5-(4-((1-methyl-1H-indazol-6-yl)amino)-1,3,5-triazin-2-yl)benzonitrile]?
**A.** IC50 [1]: 5 nM; IC50 [2]: 707 nM; IC50 [3]: 7 nM
